ChEMBL document CHEMBL4483862, “Open-source discovery of chemical leads for next-generation chemoprotective antimalarials” (2018)

Tested on: Plasmodium berghei
Assay: Luciferase/luciferin-expressing antifolate-resistant parasites were used to infect a culture of HepG2 cells that were pre-incubated with compounds. Infected hepatocytes emit light due to the luciferase reaction. Assay results are presented as the percent inhibition of light emission compared to control. […]
Type: functional
Conditions: sporozoite; for IC50: read-out: LUCIFERASE INFECTION ASSAY - IC50; for IC90: read-out: LUCIFERASE INFECTION ASSAY - IC90

SMILES | IC50 [µM] | IC90 [µM]
CCN1CCN(c2ccc(S(=O)(=O)N3CCCCC3)cc2NC(=O)COc2ccc(Cl)c(C)c2)CC1 | 9.01 | > 10
COCCn1c(SC(C)C(=O)NCC2CCCO2)nc2scc(-c3ccc(F)cc3)c2c1=O (stereo unspecified) | > 10 | > 10
Cc1[nH]c2ccc(C(=O)OC(C)C(=O)NCc3ccccc3)cc2c1C (stereo unspecified) | 3.57 | 8.96
CCN(CC(=O)Nc1ccccc1C(F)(F)F)C(=O)Cn1c(=O)cnc2ccccc21 | > 10 | > 10
CC(C)CN(C(=O)CN(C)C(=O)c1ccco1)c1c(N)n(CC(C)C)c(=O)[nH]c1=O | > 10 | > 10
O=C(CC12CC3CC(CC(C3)C1)C2)NCC(=O)Nc1ccc2[nH]c(=O)[nH]c2c1 | > 10 | > 10
O=c1cc(CNC(CCCc2ccccc2)c2ccccc2)nc2ccc(Cl)cn12 (stereo unspecified) | > 10 | > 10
CC(C)(C)C1CCC2(CC1)NC(=O)N(CC(=O)OCC(=O)N1CCN(Cc3ccccc3)C1=O)C2=O (stereo unspecified) | > 10 | > 10
CON(C)S(=O)(=O)c1ccc(NC(=O)COc2cccc(C(C)(C)C)c2)cc1 | > 10 | > 10
O=[N+]([O-])c1ccc(Nc2nc3ccc(Cl)cc3o2)cc1 | > 10 | > 10
CC(Sc1nc2ccccc2c(=O)n1CCCN1CCOCC1)c1ccc(F)cc1 (stereo unspecified) | > 10 | > 10
CCOC(=O)c1c(NC(=O)CN(CC(C)C)C2CC2)sc(C(=O)Nc2ccc(C)cc2C)c1C | 4.24 | 5.26
O=C(Cc1cccc2ccccc12)NCC(=O)Nc1nc(-c2ccccc2)cs1 | > 10 | > 10
COc1ccc(-c2nc(C)c(C(=O)NCc3ccc(-n4cccn4)nc3)s2)cc1 | > 10 | > 10
Cc1cc(C)cc(-n2c(SCc3nc4ccccc4n3C(F)F)nc3ccccc3c2=O)c1 | > 10 | > 10
O=C(NC(CCCc1ccccc1)c1ccccc1)c1ccc(N2CCCS2(=O)=O)cc1 (stereo unspecified) | 5.56 | 5.73
CC(C)CNC(=O)CN1CCN(c2nc(-c3cccs3)nc3sc4c(c23)CCC4)CC1 | 3.4 | 3.94
O=C(Nc1cccc(NC(=O)c2cc(C3CC3)nc3c2nc2n3CCCCC2)c1)c1ccco1 | > 10 | > 10
COc1ccc(Cl)cc1NC(=O)CCN1CCN(c2ncc(C(F)(F)F)cc2Cl)CC1 | 4.95 | 9.88
COc1ccc(/C=C/C(=O)c2cc(F)c(Cl)cc2Cl)c(OC)c1OC | 9.74 | > 10

SMILES | IC50 [µM] | IC90 [µM]
O=C(Nc1ncccc1O)c1ccc(S(=O)(=O)NCCc2cccs2)cc1 | 0.134 | 0.176
CSc1ccc(N2CC(C(=O)N(C)C(C)c3cccc([N+](=O)[O-])c3)CC2=O)cc1 (stereo unspecified) | > 10 | > 10
COCCCn1c(C)cc(C(=O)CSc2nc(C)nc3c2c(=O)n(C)c(=O)n3CC(C)C)c1C | > 10 | > 10
O=C(CN1CCN(C(c2ccc(F)cc2)c2ccc(F)cc2)CC1)Nc1nnc(-c2ccccc2)o1 | 1.23 | 1.43
CC(=O)N1CCN(S(=O)(=O)c2ccc(C(=O)NCCCCCCC(C)C)cc2)CC1 | > 10 | > 10
COCCOc1ccc(C(F)(F)F)cc1NC(=O)COc1ccc2ccc(=O)oc2c1 | > 10 | > 10
Cc1cc(C(=O)CN(C)Cc2nc(=O)c3ccccc3[nH]2)c(C)n1CC1COc2ccccc2O1 (stereo unspecified) | 0.371 | > 10
C/C=C/c1ccc(OCC(O)Cn2c(=O)c(-c3ccccc3)[n+]([O-])c3ccccc32)c(OC)c1 (stereo unspecified) | 1.21 | 9.19
Cc1nn(-c2ccccc2)nc1C(=O)Nc1nc(CN2CCCCCC2)cs1 | > 10 | > 10
CC(C)CCCC(C)NC(=O)CSCc1cccc(C(=O)O)c1 (stereo unspecified) | > 10 | > 10
CN1CCN(c2ccc(Cl)cc2NC(=O)CCc2nc3ccccc3s2)CC1 | > 10 | > 10
CCCC1C/C(=C/c2ccc(C(=O)NC)cc2)C(=O)/C(=C/c2ccc(C(=O)NC)cc2)C1 (stereo unspecified) | 3.29 | 3.86
Cc1cc(=O)n2nc(C(F)(F)F)n(CC(=O)Nc3ccc(Sc4ccc(C)c(C)c4)cc3)c2c1 | > 10 | > 10
CCCn1c(N)c(N2CCCCC2)c(=O)n(Cc2nc(N)nc(Nc3ccc(C)cc3)n2)c1=O | 3.72 | 4.61
Cc1ccc(CN(C)C(=O)NNC(=O)c2ccccc2)c(C)c1 | > 10 | > 10
COc1cc(/C=C/C(=O)Nc2nc3c(s2)CC(C)CC3)cc(OC)c1 (stereo unspecified) | > 10 | > 10
O=C(Nc1cccc([N+](=O)[O-])c1)NC1CCSc2ccc(F)cc21 (stereo unspecified) | 3.86 | 4.49
COC(=O)c1occc1/C=C/C(=O)c1ccc(OCc2ccccc2)cc1 | > 10 | > 10
O=C(CSc1nc2cc(S(=O)(=O)Nc3ccccc3Cl)ccc2o1)NCc1ccccc1 | > 10 | > 10
N#C/C(=C\c1ccc2c(c1)OCCO2)c1ccc(C(F)(F)F)cn1 | > 10 | > 10

SMILES | IC50 [µM] | IC90 [µM]
COc1ccc(CN(CC(=O)NCCc2ccc(F)cc2)C(C)Cc2cccs2)cc1 (stereo unspecified) | > 10 | > 10
O=C(NC1CC1)c1cccc(NC(C(=O)Nc2cc(C(F)(F)F)ccc2Cl)c2ccccc2)c1 (stereo unspecified) | 9.94 | > 10
CN(CC(=O)Nc1ccc(-c2nnc3n2CCCCC3)cc1)C1CCS(=O)(=O)C1 (stereo unspecified) | > 10 | > 10
Cc1ccc(S(=O)(=O)N(C)CC(=O)N(C)Cc2ccccc2OC(F)(F)F)cc1C | > 10 | > 10
COc1ccc(Nc2nnc(SC(C)C(=O)Nc3sccc3C(N)=O)s2)cc1 (stereo unspecified) | > 10 | > 10
COc1ccc(S(=O)(=O)N2CCN(C(=O)c3sc4nc5n(c(=O)c4c3C)CCCCC5)CC2)cc1 | > 10 | > 10
Nc1nnc(SCC(=O)N(Cc2ccccc2)c2nc(-c3ccc(Cl)cc3)cs2)[nH]1 | > 10 | > 10
CCOC(=O)c1ccc(N2CCN(C(=O)CCc3cc(C(C)(C)C)c(O)c(C(C)(C)C)c3)CC2)nc1 | > 10 | > 10
COc1ccc(-c2nn(-c3ccccc3)cc2/C=C/C(=O)OCc2ncc(Cl)n2C)cc1OC | > 10 | > 10
O=C1/C(=C/c2ccc(SC(F)(F)F)cc2)SC(=S)N1CCN1CCOCC1 | > 10 | > 10
Cc1nn(-c2ccccc2)c(Cl)c1CSc1nnc(/C=C/c2ccc(F)cc2)[nH]1 | > 10 | > 10
CCN(c1ccccc1)S(=O)(=O)c1ccc(NNC(=O)Nc2cccc3ccccc23)nc1 | 8.75 | > 10
CCOCCCn1c(SCc2nc(-c3cccs3)oc2C)nc2sc(C)c(C)c2c1=O | > 10 | > 10
COC(=O)/C=C/c1ccc(OCC(O)COc2ccc(C(C)(C)C)cc2)c(OC)c1 (stereo unspecified) | > 10 | > 10
N#Cc1cccc(/C=C/C(=O)c2ccc(S(=O)(=O)N3CCCC3)cc2)c1 | > 10 | > 10
C=CCN(C(=O)C1CCN(S(=O)(=O)c2cccs2)CC1)c1nc2c(s1)CCCC2 | > 10 | > 10
COc1ccc(-c2cc(NC(=O)C(C)NS(=O)(=O)c3ccc(C)cc3)ccc2OC(F)F)cc1 (stereo unspecified) | 8.3 | > 10
CC(=O)Nc1cccc(C(=O)/C=C/c2cn(-c3ccccc3)nc2-c2ccncc2)c1 | > 10 | > 10
